Data: US5416087A, “Bis-benzo, cyclohepta piperidylidene, piperidine and piperazine compounds, compositions and methods of use” (priority 1993, dated 1995)
pIC50: −log10 of the molar value.

How the values were obtained:
[1] = test system: PAF-induced platelet aggregation; assay: Platelet aggregation assay (PAF-induced aggregation of human platelet-rich plasma); format: cell-based; conditions: 2 min, human PRP, PAF 1-5×10^-8 M, 37° C., 2 min. incubation, read-out: PAF Antagonism (in vitro) IC50
Experimental: Platelet-activating factor (PAF) causes aggregation of platelets by a receptor-mediated mechanism. Therefore, PAF-induced platelet aggregation provides a simple and convenient assay to screen compounds for PAF antagonism.
Blood was centrifuged at 110×g for 15 min. and the supernatant platelet-rich plasma (PRP) carefully transferred into a polypropylene tube. Platelet-poor-plasma (PPP) was prepared by centrifuging PRP at 12,000×g for 2 min. (Beckman Microfuge B). PRP was used within 3 hr. of drawing the blood.
PAF was dissolved in chloroform:methanol (1:1, v/v) at a concentration of 2 mg/ml and stored at -70° C. An aliquot of this solution was transferred to a polypropylene tube and dried under a flow of nitrogen gas. […] This stock solution was further diluted to appropriate concentrations in Hepes-saline-BSA buffer. Collagen (Sigma) and adenosine diphosphate (ADP) (Sigma) were purchased as solutions. Test compounds were initially dissolved in dimethyl sulfoxide (DMSO) at a concentration of 50 mM and then further diluted in Hepes-saline-BSA buffer to achieve appropriate concentrations.
When an aggregating agent such as PAF is added to PRP, platelets aggregate. An aggregometer quantifies this aggregation by measuring and comparing light (infra-red) transmission through PPP and PRP. […]

[2] = test system: PAF (agonist bronchospasm); assay: PAF-induced bronchospasm in guinea pigs; format: in vivo, Male Hartley guinea pigs; conditions: dose 10 mg/kg oral, PAF 0.4 μg/kg i.v.
Experimental: (§1) Male Hartley guinea pigs (450-550 g) were obtained from Charles River Breeding Laboratories. The animals were fasted overnight and the following day were anesthetized with 0.9 ml/kg i.p. of dialurethane (containing 0.1 g/ml diallylbarbituric acid, 0.4 g/ml ethylurea and 0.4 g/ml urethane). The left jugular vein was cannulated for the administration of compounds. The trachea was cannulated and the animals were ventilated by a rodent respirator at 55 strokes/min. with a stroke volume of 4 ml. A side arm to the tracheal cannula was connected to a pressure transducer to obtain a continuous measure of inflation pressure. Bronchoconstriction was measured as the percent increase in inflation pressure that peaked within 5 min. after challenge with spasmogen. […] Each animal was challenged with only a single spasmogen. The effect of a compound on the bronchospasm is expressed as a percent inhibition of the increase in inflation pressure compared to the increase in a control group.

[3] = test system: Histamine (agonist bronchospasm); assay: Histamine-induced bronchospasm in guinea pigs; format: in vivo, Male Hartley guinea pigs; conditions: dose 1 mg/kg oral, histamine 10 ug/kg i.v.
Experimental: as §1

pIC50 [1] | Structure (SMILES) | PAF Agonist Bronchospasm (in vivo) - oral, % Inhibition [2] [%] | Histamine Agonist Bronchospasm (in vivo) - oral, % Inhibition [3] [%]
5.60 | O=C(c1cc[n+]([O-])cc1)N1CCN(C2c3ccccc3-c3ccccc32)CC1 [Example 8] | – | –
– | CCOC(=O)N1CCC(=C2c3ccc(Cl)cc3CCc3cccnc32)CC1 [Compound 1] | < 50 | > 50
